Source: patent publication US20240158446A1, “CYCLIC COMPOUND HAVING SELECTIVE INHIBITORY ACTION ON KRAS OVER HRAS AND NRAS” (CHUGAI SEIYAKU KABUSHIKI KAISHA, priority 2021, published 2024)
Read-outs that look alike come from different tables or passages of the source.

Tests used:
[1] = target: GDP-bound KRAS wild-type protein (Homo sapiens, UniProt P01116); assay: Binding to KRAS by surface plasmon resonance (SPR), Single Cycle Kinetics; details: GDP-bound KRAS wild-type protein, read-out: KRAS KD
[2] = target: GDP-bound NRAS wild-type protein (Homo sapiens, UniProt P01111); assay: Binding to NRAS by surface plasmon resonance (SPR), Single Cycle Kinetics; details: for NRAS/KRAS (ratio of KD value with respect to GDP-bound NRAS wild-type protein to KD value with respect to KRAS): SPR KD ratio NRAS/KRAS, class symbols
[3] = target: GDP-bound HRAS wild-type protein (Homo sapiens, UniProt P01112); assay: Binding to HRAS by surface plasmon resonance (SPR), Single Cycle Kinetics; details: for HRAS/KRAS (ratio of KD value with respect to GDP-bound HRAS wild-type protein to KD value with respect to KRAS): SPR KD ratio HRAS/KRAS, class symbols
[4] = test system: human lung cancer strain NCI-H441;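 further: cell proliferation inhibition after four days measured by CellTiter-Glo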
[5] = SPR Single Cycle Kinetics, 1:1 binding model

GDP-bound KRAS wild-type protein, sequence (P01116 whole entry): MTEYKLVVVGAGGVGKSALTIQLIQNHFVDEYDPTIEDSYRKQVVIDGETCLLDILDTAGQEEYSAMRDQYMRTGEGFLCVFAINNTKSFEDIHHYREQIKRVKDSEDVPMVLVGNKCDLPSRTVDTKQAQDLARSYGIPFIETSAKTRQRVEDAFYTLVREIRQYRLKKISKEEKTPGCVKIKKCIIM
GDP-bound HRAS wild-type protein, sequence (P01112 whole entry): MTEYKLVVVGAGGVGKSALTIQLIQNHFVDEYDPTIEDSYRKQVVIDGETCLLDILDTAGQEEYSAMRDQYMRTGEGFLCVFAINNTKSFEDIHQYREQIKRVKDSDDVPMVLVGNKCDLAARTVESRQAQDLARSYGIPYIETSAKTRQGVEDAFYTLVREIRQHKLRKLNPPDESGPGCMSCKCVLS
GDP-bound NRAS wild-type protein, sequence (P01111 whole entry): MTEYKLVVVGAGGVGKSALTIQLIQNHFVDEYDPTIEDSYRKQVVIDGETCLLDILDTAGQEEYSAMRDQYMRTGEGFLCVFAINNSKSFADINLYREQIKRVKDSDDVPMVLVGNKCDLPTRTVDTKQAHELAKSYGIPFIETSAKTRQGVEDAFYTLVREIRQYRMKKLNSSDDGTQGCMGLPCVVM

Compound	Kd ([1]; SPR, Single Cycle Kinetics) [nM]	IC50 [4] [nM]	Kd [1, 5] [nM]	NRAS/KRAS (ratio of KD value for NRAS to KD value for KRAS) ([2]; SPR, GDP-bound NRAS wild-type protein vs GDP-bound KRAS wild-type protein)	HRAS/KRAS (ratio of KD value for HRAS to KD value for KRAS) ([3]; SPR, GDP-bound HRAS wild-type protein vs GDP-bound KRAS wild-type protein)	NRAS/KRAS (ratio of KD value with respect to GDP-bound NRAS wild-type protein to KD value with respect to KRAS) [2]	HRAS/KRAS (ratio of KD value with respect to GDP-bound HRAS wild-type protein to KD value with respect to KRAS) [3]
CCC[C@H]1C(=O)N[C@@H]([C@@H](C)CC)C(=O)N(C2CC2)CC(=O)N(C)[C@H]2C/C=C\CCN(C2=O)[C@@H](CC2CCC(F)(F)CC2)C(=O)N(C)CC(=O)N[C@@H](CCc2ccc(Cl)c(Cl)c2)C(=O)N2C[C@H](OC(C)C)C[C@H]2C(=O)NC2(CC(C)(C)C2)C(=O)N(C)[C@@H](C2CCCC2)C(=O)N(C)[C@H](C(=O)N(C)C)CC(=O)N1C [PP2521]	2.8	129		A (a compound having 10 or more and less than 20 is denoted as A)	A (a compound having 10 or more and less than 20 is denoted as A)		
CCC(CC)[C@H]1C(=O)N(C)[C@H](C(=O)N(C)C)CC(=O)N(C)[C@@H](COC)C(=O)N[C@@H]([C@@H](C)CC)C(=O)N(C2CC2)CC(=O)N(C)[C@H]2C/C=C\CCN(C2=O)[C@@H](CC2CCC(F)(F)CC2)C(=O)N(C)CC(=O)N[C@@H](CCc2cc(F)c(C(F)(F)F)c(F)c2)C(=O)N2C[C@H](OC(C)C)C[C@H]2C(=O)NC2(CC(C)(C)C2)C(=O)N1C [PP2523]		91.9	1.7			A (a compound having 10 or more and less than 20 is denoted as A)	A (a compound having 10 or more and less than 20 is denoted as A)
CCC(CC)[C@H]1C(=O)N(C)[C@H](C(=O)N(C)C)CC(=O)N(C)[C@@H](COC)C(=O)N[C@@H]([C@@H](C)CC)C(=O)N(C2CC2)CC(=O)N(C)[C@H]2C/C=C\CCN(C2=O)[C@@H](CC2CCC(F)(F)CC2)C(=O)N(C)CC(=O)N[C@@H](CCc2ccc(Cl)c(Cl)c2)C(=O)N2C[C@H](OC(C)C)C[C@H]2C(=O)NC2(CC(C)(C)C2)C(=O)N1C [PP2525]		142	3.8			AA (a compound having 20 or more is denoted as AA)	A (a compound having 10 or more and less than 20 is denoted as A)
CCC[C@H]1C(=O)N[C@@H]([C@@H](C)CC)C(=O)N(C2CC2)CC(=O)N(C)[C@H]2C/C=C\CCN(C2=O)[C@@H](Cc2ccc(C(F)F)cc2)C(=O)N(C)CC(=O)N[C@@H](CCc2cc(F)c(C(F)(F)F)c(F)c2)C(=O)N2C[C@H](OCC)C[C@H]2C(=O)NC2(CC(C)(C)C2)C(=O)N(C)[C@@H](C(CC)CC)C(=O)N(C)[C@H](C(=O)N(C)C)CC(=O)N1C [PP2527]		31	0.65			AA (a compound having 20 or more is denoted as AA)	A (a compound having 10 or more and less than 20 is denoted as A)
CCC[C@H]1C(=O)N[C@@H]([C@@H](C)CC)C(=O)N(C2CC2)CC(=O)N(C)[C@H]2C/C=C\CCN(C2=O)[C@@H](Cc2ccc(C(F)F)cc2)C(=O)N(C)CC(=O)N[C@@H](CCc2cc(F)c(C(F)(F)F)c(F)c2)C(=O)N2C[C@H](OC(C)C)C[C@H]2C(=O)NC2(CC(C)(C)C2)C(=O)N(C)[C@@H](C(CC)CC)C(=O)N(C)[C@H](C(=O)N(C)C)CC(=O)N1C [PP2529]		64	0.77			AA (a compound having 20 or more is denoted as AA)	A (a compound having 10 or more and less than 20 is denoted as A)
CCC[C@H]1C(=O)N[C@@H]([C@@H](C)CC)C(=O)N(C)CC(=O)N(C)[C@H]2C/C=C\CCN(C2=O)[C@@H](Cc2ccc(C(F)F)cc2)C(=O)N(C)CC(=O)N[C@@H](CCc2ccc(Cl)c(Cl)c2)C(=O)N2C[C@H](OC(C)C)C[C@H]2C(=O)NC2(CC(C)(C)C2)C(=O)N(C)[C@@H](C(CC)CC)C(=O)N(C)[C@H](C(=O)N(C)C)CC(=O)N1C [PP2535]		26.8	0.54			AA (a compound having 20 or more is denoted as AA)	A (a compound having 10 or more and less than 20 is denoted as A)

Now from value to compound, other results behind:

Kd ([1]; SPR, Single Cycle Kinetics) [nM]	IC50 [4] [nM]	Kd [1, 5] [nM]	Compound	NRAS/KRAS (ratio of KD value for NRAS to KD value for KRAS) ([2]; SPR, GDP-bound NRAS wild-type protein vs GDP-bound KRAS wild-type protein)	HRAS/KRAS (ratio of KD value for HRAS to KD value for KRAS) ([3]; SPR, GDP-bound HRAS wild-type protein vs GDP-bound KRAS wild-type protein)	NRAS/KRAS (ratio of KD value with respect to GDP-bound NRAS wild-type protein to KD value with respect to KRAS) [2]	HRAS/KRAS (ratio of KD value with respect to GDP-bound HRAS wild-type protein to KD value with respect to KRAS) [3]
	113	3.2	CCC[C@H]1C(=O)N[C@@H](CC(C)C)C(=O)N(CCOC)CC(=O)N(C)[C@H]2C/C=C\CCN(C2=O)[C@@H](Cc2ccc(C)cc2)C(=O)N(C)CC(=O)N[C@@H](CCc2ccc(C(F)(F)F)c(OC)c2)C(=O)N2C[C@H](OCC)C[C@H]2C(=O)NC2(CC(C)(C)C2)C(=O)N(C)[C@@H](C2CCCC2)C(=O)N(C)[C@H](C(=O)N(C)C)CC(=O)N1C [PP2522]			B (a compound having 3 or more and less than 10 is denoted as B)	B (a compound having 3 or more and less than 10 is denoted as B)
	54.5	4	C#CCN1CC(=O)N(C)[C@H]2C/C=C\CCN(C2=O)[C@@H](Cc2ccc(C)cc2)C(=O)N(C)CC(=O)N[C@@H](CCc2ccc(C(F)(F)F)c(Cl)c2)C(=O)N2C[C@H](OCC)C[C@H]2C(=O)NC2(CC(C)(C)C2)C(=O)N(C)[C@@H](C2CCCC2)C(=O)N(C)[C@H](C(=O)N(C)C)CC(=O)N(C)[C@@H](CCC)C(=O)N[C@@H](CC(C)C)C1=O [PP2526]			A (a compound having 10 or more and less than 20 is denoted as A)	B (a compound having 3 or more and less than 10 is denoted as B)
	207	4.6	CCC[C@H]1C(=O)N[C@@H](CC(C)C)C(=O)N(CC)CC(=O)N(C)[C@H]2C/C=C\CCN(C2=O)[C@@H](Cc2ccc(C)cc2)C(=O)N(C)CC(=O)N[C@@H](CCc2ccc(C(F)(F)F)c(Cl)c2)C(=O)N2C[C@H](OCC)C[C@H]2C(=O)NC2(CC(C)(C)C2)C(=O)N(C)[C@@H](C2CCCC2)C(=O)N(C)[C@H](C(=O)N(C)C)CC(=O)N1C [PP2528]			A (a compound having 10 or more and less than 20 is denoted as A)	B (a compound having 3 or more and less than 10 is denoted as B)
	16.3	0.51	CCC[C@H]1C(=O)N[C@@H]([C@@H](C)CC)C(=O)N(C)CC(=O)N(C)[C@H]2C/C=C\CCN(C2=O)[C@@H](Cc2ccc(C(F)F)cc2)C(=O)N(C)CC(=O)N[C@@H](CCc2ccc(Cl)c(Cl)c2)C(=O)N2C[C@H](OCC)C[C@H]2C(=O)NC2(CC(C)(C)C2)C(=O)N(C)[C@@H](C(CC)CC)C(=O)N(C)[C@H](C(=O)N(C)C)CC(=O)N1C [PP2531]			AA (a compound having 20 or more is denoted as AA)	A (a compound having 10 or more and less than 20 is denoted as A)
	144	4.1	CCC[C@H]1C(=O)N[C@@H](CC(C)C)C(=O)N(C2CC2)CC(=O)N(C)[C@H]2C/C=C\CCN(C2=O)[C@@H](Cc2ccc(C)cc2)C(=O)N(C)CC(=O)N[C@@H](CCc2cc(F)c(C(F)(F)F)c(F)c2)C(=O)N2C[C@H](OCC)C[C@H]2C(=O)NC2(CCC2)C(=O)N(C)[C@@H](C2CCCC2)C(=O)N(C)[C@H](C(=O)N(C)C)CC(=O)N1C [PP2532]			A (a compound having 10 or more and less than 20 is denoted as A)	B (a compound having 3 or more and less than 10 is denoted as B)
	20	0.49	CCC(CC)[C@H]1C(=O)N(C)[C@H](C(=O)N(C)C)CC(=O)N(C)[C@@H](COC)C(=O)N[C@@H]([C@@H](C)CC)C(=O)N(C)CC(=O)N(C)[C@H]2C/C=C\CCN(C2=O)[C@@H](Cc2ccc(C(F)(F)F)cc2)C(=O)N(C)CC(=O)N[C@@H](CCc2ccc(Cl)c(Cl)c2)C(=O)N2C[C@H](OC(C)C)C[C@H]2C(=O)NC2(CC(C)(C)C2)C(=O)N1C [PP2533]			AA (a compound having 20 or more is denoted as AA)	A (a compound having 10 or more and less than 20 is denoted as A)
	195	4.1	CCC[C@H]1C(=O)N[C@@H](CC(C)C)C(=O)N(C2CC2)CC(=O)N(C)[C@H]2C/C=C\CCN(C2=O)[C@@H](Cc2ccc(C)cc2)C(=O)N(C)CC(=O)N[C@@H](CCc2ccc(C(F)(F)F)c(OC)c2)C(=O)N2C[C@H](OCC)C[C@H]2C(=O)NC2(CCC2)C(=O)N(C)[C@@H](C2CCCC2)C(=O)N(C)[C@H](C(=O)N(C)C)CC(=O)N1C [PP2534]			A (a compound having 10 or more and less than 20 is denoted as A)	B (a compound having 3 or more and less than 10 is denoted as B)
	152	2.4	C#CCN1CC(=O)N(C)[C@H]2C/C=C\CCN(C2=O)[C@@H](Cc2ccc(C)cc2)C(=O)N(C)CC(=O)N[C@@H](CCc2cc(F)c(C(F)(F)F)c(F)c2)C(=O)N2C[C@H](OCC)C[C@H]2C(=O)NC2(CCC2)C(=O)N(C)[C@@H](C2CCCC2)C(=O)N(C)[C@H](C(=O)N(C)C)CC(=O)N(C)[C@@H](CCC)C(=O)N[C@@H](CC(C)C)C1=O [PP2536]			A (a compound having 10 or more and less than 20 is denoted as A)	B (a compound having 3 or more and less than 10 is denoted as B)
